# Data as given in patent US10272081B2, “SHIP1 modulators and methods related thereto” (Aquinox Pharmaceuticals (Canada) Inc., priority 2013, dated 2019).
# Columns and labels:
# [1] = system: Akt phosphorylation in Jurkat (SHIP1−) lymphocytes; experiment: Akt phosphorylation in lymphocytes, Jurkat (Western blot); type: cell-based; set-up: key: +: inhibits Akt phosphorylation at 10 μM; −: no effect on Akt phosphorylation at 10 μM; details: 10 μM; IGF-1 stimulated Jurkat (PTEN−/SHIP1−) cells
# Protocol: (§1) Jurkat (PTEN−/SHIP1−) or Molt-4 (PTEN−/SHIP1+) cells are starved in serum free RPMI for overnight. In a 15 mL conical tube, 2-3 million serum starved cells (1 million cells per mL) are treated with various concentrations of test compound (0.1, 1, or 10 μM final in 0.1% DMSO) for 30 min at 37° C. followed by stimulation with 100 ng/mL of IGF-1 for 1 hour at 37° C. After stimulation, cells are washed once with ice-cold DPBS and lysed with Lysis Buffer (20 mM Tris-HCl, pH 7.5, 140 mM NaCl, 1% NP-40, Complete Mini Protease Inhibitor Cocktail, 10 mM NaF, 1 mM Na3VO4, 1 mM β-glycerolphosphate) on ice for 30 min with vortexing every 10 min. Samples are then centrifuged at 13,000 rpm for 20 min, and supernatants are collected as total cell lysate samples. Protein concentration is determined using bicinchonic acid assay, and about 15 μg of total protein from each sample is loaded and separated on a 4-12% Tris-Glycine gel. After SDS-PAGE, proteins are transferred from the gel to a nitrocellulose membrane. The membrane is blocked in 5% BSA in PBS containing 0.1% Tween-20 (PBS-T) for 1 hour at room temperature before probing with primary antibodies for overnight at 4° C. The following antibodies are used: mouse anti-SHIP1 (1:500 dilution; Santa Cruz, Calif., USA), rabbit anti-phospho-Akt(Ser473) (1:1000 dilution; Cell Signaling Technologies, MA, USA), rabbit anti-Akt (1:1000; Cell Signaling Technologies, MA, USA), and rabbit anti-actin (1:2000; Cell Signaling Technologies, MA, USA). The membrane is then incubated with goat anti-rabbit or anti-mouse secondary antibodies (1:3000) for 1 hour at room temperature. Target proteins on the membrane are detected with ECL solution and exposed on a film.
# [2] = system: Akt phosphorylation in Molt-4 (SHIP1+) lymphocytes; experiment: Akt phosphorylation in lymphocytes, Molt-4 (Western blot); type: cell-based; set-up: key: +: inhibits Akt phosphorylation at 10 μM; −: no effect on Akt phosphorylation at 10 μM; details: 10 μM; IGF-1 stimulated Molt-4 (PTEN−/SHIP1+) cells
# Protocol: as §1
# His-hSHIP1 enzyme [3] = target: T1, His-hSHIP1 enzyme (Homo sapiens, UniProt Q92835); experiment: His-hSHIP1 activity, approach 2 (ratio of initial velocities IP4 25/IP4 250); type: biochemical; set-up: key: +++: higher than reference or reference - 15%; ++: reference - 16% to reference - 30%; +: reference - 31% or lower; details: ratio of initial velocities IP4 25/IP4 250 versus reference SHIP1 activator; asterisk in Table 2
# T1 construct: His
# T1 sequence (Q92835 1-1189): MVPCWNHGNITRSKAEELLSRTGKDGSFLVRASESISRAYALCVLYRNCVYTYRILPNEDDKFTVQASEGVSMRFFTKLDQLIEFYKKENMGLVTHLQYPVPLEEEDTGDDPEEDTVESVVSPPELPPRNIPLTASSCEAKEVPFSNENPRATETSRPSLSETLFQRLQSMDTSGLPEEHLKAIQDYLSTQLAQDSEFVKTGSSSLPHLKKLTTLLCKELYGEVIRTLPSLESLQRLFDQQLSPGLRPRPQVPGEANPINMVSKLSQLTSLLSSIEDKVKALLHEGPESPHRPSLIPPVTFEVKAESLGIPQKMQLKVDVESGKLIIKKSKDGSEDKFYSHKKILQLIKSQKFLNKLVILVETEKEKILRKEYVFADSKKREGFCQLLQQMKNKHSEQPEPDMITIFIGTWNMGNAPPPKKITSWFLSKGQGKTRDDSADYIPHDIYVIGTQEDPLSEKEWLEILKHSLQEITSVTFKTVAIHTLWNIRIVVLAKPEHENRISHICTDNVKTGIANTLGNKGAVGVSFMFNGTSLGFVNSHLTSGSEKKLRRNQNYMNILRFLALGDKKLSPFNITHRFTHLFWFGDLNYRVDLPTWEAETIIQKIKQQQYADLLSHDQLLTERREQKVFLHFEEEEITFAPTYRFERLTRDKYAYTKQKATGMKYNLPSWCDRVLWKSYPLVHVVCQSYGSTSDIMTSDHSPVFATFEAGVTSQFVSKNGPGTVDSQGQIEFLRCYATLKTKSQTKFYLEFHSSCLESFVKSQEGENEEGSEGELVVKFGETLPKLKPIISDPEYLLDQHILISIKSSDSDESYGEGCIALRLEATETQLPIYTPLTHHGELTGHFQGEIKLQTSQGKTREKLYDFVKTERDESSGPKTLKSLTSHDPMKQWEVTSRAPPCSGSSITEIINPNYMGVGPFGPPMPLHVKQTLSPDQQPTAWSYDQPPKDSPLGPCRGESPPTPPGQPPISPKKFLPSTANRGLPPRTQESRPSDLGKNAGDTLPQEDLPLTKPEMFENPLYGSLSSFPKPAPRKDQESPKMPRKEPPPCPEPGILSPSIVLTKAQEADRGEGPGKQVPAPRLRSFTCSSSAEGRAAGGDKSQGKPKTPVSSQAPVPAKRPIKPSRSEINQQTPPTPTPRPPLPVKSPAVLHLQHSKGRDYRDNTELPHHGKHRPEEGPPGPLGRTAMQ
# Protocol: (§2) Test compounds are dissolved in 95% ethanol to form stock solutions. Before screening, the stock solutions are diluted with Phosphatase Assay Buffer (20 mM Tris-HCL, 10 mM MgCl2 pH 7.5, 0.02% Tween 20) to form working assay solutions that contain 10% ethanol. The assay is carried out on 96-well microtiter plates using a modified procedure of that reported by Ong et al., Blood 110, 1942-1949, 2007 and Yang et al., Org Lett 7, 1073-1076, 2005, both of which references are incorporated herein by reference in their entirety.
# In the second approach, a master mix is prepared that contains […] (0.4-1.6 ng/μL final), 25 μL of the substrate, IP4 (25 or 250 μM final), and 50 μL of test compound in 3.3% ethanol ([…]). Control blanks are also prepared by replacing His-hSHIP1 enzyme, IP4, or test compounds with Phosphate Assay Buffer. […] Each reaction component is preincubated at 37° C. for 30 min before adding to a 96-well microtiter plate. The master mix is then incubated at 37° C. At time 0, 20, 25 and 30 min, 25 μL of the master mix is removed and transferred to a new 96-well microtiter plate, to which 100 μL of Biomol Green Reagent is added to stop the reaction. After incubating the mixture for 20 min at room temperature for color development, the absorbance is read with SpectraMax Plus 96-well plate reader at a wavelength of 650 nm. Phosphate released is plotted against time to calculate the initial velocities (i.e., slope of the graph) at each IP4 concentration. The initial velocities are baseline corrected and the ratio of initial velocities (IP425/IP4250) is calculated and used to rate the test compounds.
# His-hSHIP1 enzyme [4] = target: T1, His-hSHIP1 enzyme; experiment: His-hSHIP1 activity, approach 1 (phosphate release from IP4, Biomol Green); type: biochemical; details: activation of His-hSHIP1; IP4 50 μM; test compound 0-300 μM; no asterisk in Table 2
# Protocol: as §2
# Data were generated by one of two variant methods. Test compounds are screened by one of two approaches described as follows. In the first approach, each reaction contains 5 μL of His-hSHIP1 enzyme (5-20 ng), 10 μL of the substrate, 1,3,4,5-inositol tetrakisphosphate (IP4; 50 μM final), 5 μL of Phosphatase Assay Buffer, and 5 µL of test compound at various concentrations in 10% ethanol (0-300 μM final). Control blanks are also prepared by replacing His-hSHIP1 enzyme, IP4, or test compounds with Phosphatase Assay Buffer. After adding the reaction components in a 96-well microtiter plate on ice, the reaction is mixed by briefly shaking the plate vigorously. The reaction is then incubated at 37° C. for 15 min with gentle shaking followed by addition of 100 μL of Biomol Green Reagent (BIOMOL, Pa., USA) to terminate the reaction. The free phosphate released from IP4 by His-hSHIP1 binds to the Biomol Green Reagent, which turns the dye to green color. After incubating the mixture for 20 min at room temperature for color development, the absorbance is read with SpectraMax Plus 96-well plate reader (Molecular Devices, Sunnyvale, Calif., USA) at a wavelength of 650 nm.
# [5] = system: passive cutaneous anaphylaxis in mice; experiment: Passive cutaneous anaphylaxis in mice; type: in vivo; details: oral gavage, doses less than 20 mg/kg
# Protocol: The activity of representative compounds on passive cutaneous anaphylaxis in mice was evaluated according to the procedures disclosed by Ovary, J Immunol 81, 355-357, 1958 and Halpern et al., Br J Pharmacol Chemother 20, 389-398, 1963, both of which are incorporated herein by reference in their entirety.
# To induce a passive cutaneous anaphylaxis, mice undergo intradermal ear inoculation on their right ear with 25 ng in 20 μL of anti-DNP-IgE. The left ears are untreated and serve as negative controls. Twenty-four hours after inoculation, all mice are administered test compound by oral gavage (PO). Sixty minutes after oral administration, mice are given a tail vein injection of 2% Evan's Blue (0.2 μm filtered, in 200 μL saline) followed by a second tail IV injection of 100 μg DNP-HSA (in 200 μL). Sixty minutes following the DNP-HAS injection, mice are euthanized using CO2 inhalation. Subsequently, ear biopsies are performed by taking four millimetre punches from both ears, which then undergo Evan's Blue extraction using formamide incubation in 96 well plates. Eighty μL of eluents are transferred to flat-bottom 96-well plates and absorbance read using SpectraMax M5 spectrophotometer (Molecular Devices, Sunnyvale, Calif., USA) at 620 nm. Background readings from all samples are taken at 740 nm and subtracted from the 620 nm readings. Data are reported as OD.
# [6] = system: carrageenan paw edema in mice; experiment: Carrageenan paw edema in mice; type: in vivo; details: 30 mg/kg orally one hour before carrageenan, 4 hours after carrageenan
# Protocol: The activity of representative compounds on carrageenan paw edema in mice was evaluated according to the procedures disclosed by Winter et al., Proc Soc Exp Biol Med 111, 544-547, 1962 which is incorporated herein by reference in its entirety.
# To induce edema in the paw, test compounds were administered orally one hour before intraplantar injection of the right hind paw with carrageenan (50 μL of 1% suspension). Hind paw edema, as a measure of inflammation, was recorded using a plethysmometer (Ugo Basile, Italy) 4 hours after λ-carrageenan administration.
Compound,"Jurkat (SHIP1 −), Akt phosphorylation [1]","Molt-4 (SHIP +), Akt phosphorylation [2]","Scoring, Approach 2 (Initial velocity Ratio) (His-hSHIP1 enzyme [3])","Scoring, Approach 1 (% increase relative to background) (His-hSHIP1 enzyme [4])",% Inhibition of allergen-induced passive cutaneous anaphylaxis [5],inhibition of carrageenan-induced paw edema [6]
"Cc1cc(O)cc(C[C@H]2[C@@H](C(=O)O)CC[C@H]3C(C)(C)CCC[C@]23C)c1 [Compound No. 20, (1S,2S,4aS,8aR)-1-[(3-hydroxy-5-methylphenyl)methyl]-5,5,8a-trimethyl-decahydronaphthalene-2-carboxylic acid]",−,−,+++,,,
"Cc1cc(O)cc(C(=O)[C@H]2C(C)C(N)C[C@H]3C(C)(C)CCC[C@]23C)c1.Cl (stereo partly drawn) [Compound No. 22, 3-{[(1S,4aS,8aS)-3-amino-2,5,5,8a-tetramethyl-decahydronaphthalen-1-yl]carbonyl}-5-methylphenol hydrochloride]",−,+,,+ (0 < x < 50),,
"CC1(C)CCC[C@]2(C)[C@@H](COc3cc(O)cc(O)c3)[C@](C)(O)CC[C@@H]12 [Compound No. 38, 5-{[(1S,2R,4aS,8aS)-2-hydroxy-2,5,5,8a-tetramethyl-decahydronaphthalen-1-yl]methoxy}benzene-1,3-diol]",,,,+ (0 < x < 50),+++ (>50% inhibition),
"C[C@H]1CC[C@H]2C(C)(C)CCC[C@]2(C)[C@H]1CC(=O)c1cc(O)cc(O)c1 [Compound No. 48, 2-[(1S,2S,4aS,8aR)-2,5,5,8a-tetramethyl-decahydronaphthalen-1-yl]-1-(3,5-dihydroxyphenyl)ethan-1-one]",,,,+++ (x ≥65),,21%
"CC(=O)N[C@@H]1C[C@H]2C(C)(C)CCC[C@]2(C)[C@@H](C(=O)c2cc(O)cc(O)c2)[C@@H]1C [Compound No. 57, N-[(2R,3S,4S,4aS,8aS)-4-[(3,5-dihydroxyphenyl)carbonyl]-3,4a,8,8-tetramethyl-decahydronaphthalen-2-yl]acetamide]",−,,,+++ (x ≥65),+++ (>50% inhibition),
"C[C@H]1CC[C@H]2C(C)(C)CCC[C@]2(C)[C@H]1CC(O)c1cc(O)cc(O)c1 (stereo partly drawn) [Compound No. 58, 5-{2-[(1S,2S,4aS,8aR)-2,5,5,8a-tetramethyl-decahydronaphthalen-1-yl]-1-hydroxyethyl}benzene-1,3-diol]",,,,+++ (x ≥65),+++ (>50% inhibition),
"Cc1cc(O)cc(C(=O)[C@H]2[C@H](C)C(C(=O)O)C[C@H]3C(C)(C)CCC[C@]23C)c1 (stereo partly drawn) [Compound No. 68, (3S,4S,4aS,8aS)-4-[(3-hydroxy-5-methylphenyl)carbonyl]-3,4a,8,8-tetramethyl-decahydronaphthalene-2-carboxylic acid]",−,−,+++,,,
